Here are results for one compound from PMC4607267 (Molecular and biochemical parasitology, 2015).

Broadly, the inhibition is the share of the control response that was lost under treatment.

The target of this assay is T1, SmGAR (Schistosoma mansoni, UniProt A0A3Q0KNW8).
T1 sequence (A0A3Q0KNW8 5-938): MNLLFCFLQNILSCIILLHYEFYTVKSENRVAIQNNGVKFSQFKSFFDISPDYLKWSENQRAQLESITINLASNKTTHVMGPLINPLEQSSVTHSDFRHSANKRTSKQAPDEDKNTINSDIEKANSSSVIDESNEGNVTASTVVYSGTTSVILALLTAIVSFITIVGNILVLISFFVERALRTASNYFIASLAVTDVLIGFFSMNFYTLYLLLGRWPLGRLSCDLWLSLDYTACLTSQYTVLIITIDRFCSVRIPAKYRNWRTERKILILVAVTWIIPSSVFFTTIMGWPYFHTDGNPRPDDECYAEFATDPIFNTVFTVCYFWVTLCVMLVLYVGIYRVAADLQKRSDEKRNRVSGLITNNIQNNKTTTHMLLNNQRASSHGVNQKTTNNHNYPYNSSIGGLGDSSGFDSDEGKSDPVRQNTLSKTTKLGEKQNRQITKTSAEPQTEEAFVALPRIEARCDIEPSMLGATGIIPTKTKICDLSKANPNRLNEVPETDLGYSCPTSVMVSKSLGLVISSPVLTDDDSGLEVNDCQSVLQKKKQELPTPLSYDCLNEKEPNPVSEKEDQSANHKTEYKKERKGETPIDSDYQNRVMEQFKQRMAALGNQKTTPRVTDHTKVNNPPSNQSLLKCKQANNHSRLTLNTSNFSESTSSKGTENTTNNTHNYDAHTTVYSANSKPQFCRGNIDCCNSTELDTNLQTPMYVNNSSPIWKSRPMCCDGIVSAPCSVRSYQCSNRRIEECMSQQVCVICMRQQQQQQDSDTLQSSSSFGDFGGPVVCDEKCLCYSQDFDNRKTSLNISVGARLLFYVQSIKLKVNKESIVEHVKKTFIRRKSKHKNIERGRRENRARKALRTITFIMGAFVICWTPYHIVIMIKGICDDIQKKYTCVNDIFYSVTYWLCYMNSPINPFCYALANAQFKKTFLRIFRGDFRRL
Kind of assay: yeast HIS3 reporter growth assay, Alamar Blue. The following applies: read-out: % inhibition at 1 mM. Format: cell-based. (Resazurin is reduced to fluorescent resorufin, in cell work by metabolically active cells.)

As to `CN1CCN(CC(=O)N2c3ccccc3C(=O)Nc3cccnc32)CC1` [pirenzepine], the inhibition at 1000 µM is less than 50%.
